This passage reports melting point results from patent publication US6399628B1, “N-(aryl/heteroaryl) amino acid esters, pharmaceutical compositions comprising same, and methods for inhibiting alpha- amyloid peptide release and/or its synthesis by use of such compounds” (Athena Neurosciences, Inc., priority 1996, dated 2002).

As usually defined, the melting point is the temperature, or range, at which the solid turns liquid.

In turn, `CCOC(=O)C(CC)Nc1ccc2ccccc2c1` (stereo not shown) [Example 39, 2-[N-(naphth-2-yl)amino]butanoic acid ethyl ester] registered a melting point of 81 to 83 °C.
